Tests used:
[1] = molecular target: rat prostate testosterone 5α-reductase; assay: In vitro 5α-reductase inhibitor enzymatic assay (rat ventral prostate homogenate, [3H]testosterone conversion); type: biochemical; conditions: pH 6.5, 37° C., 30 min, mean of three separate experiments
Experimental: A homogenate of the ventral prostate gland of male Sprague-Dawley rats was prepared, and testosterone 5α-reductase inhibition was measured using the methods previously reported in Iwai, A., et al., “Spectrophotometric Method for the Assay of Steroid 5α-reductase activity of rat liver and prostate microsomes”, Analytical Sciences 2013, 29: 455-459. Both the type 1 and the type 2 isozymes are present in the ventral prostate of the rat. In the assay, rat prostate extracts were used in a neutral pH buffer, and both isozymes were assayed.
The ventral prostate glands were excised and minced with a pair of scissors. The 20 w/v % homogenates were prepared with a glass-glass homogenizer in medium A (sucrose 0.32 M, dithiothreitol 0.1 mM, and sodium phosphate 20 mM, pH 6.5). The homogenate was filtered with surgical gauze and then centrifuged at 3000×g for 10 min. The pellets were suspended in medium A at a protein concentration of 20 mg/ml by triturating sequentially through an 18-gauge needle, and then a 20-gauge needle.
To 40 μl of the enzyme suspension, 10 μl of test sample in ethanol or ethanol alone and a mixture containing 0.525 ml of reaction solution consisting of dithiothreitol 1 mM, sodium phosphate 40 mM, pH 6.5, NADPH 5×10^−5 M, and [1,2,6,7^−3H]testosterone 2.2×10^−9 M were added. The assay mixture was incubated at 37° C. for 30 min. The reaction was stopped by the addition of 1 ml of ethyl acetate, and 50 μl of the upper phase was separated on a silica gel plate in the developing solvent system of ethyl acetate/cyclohexane, at a ratio of 1:1. The zones corresponding to the testosterone and 5α-dihydrotestosterone were cut into fragments. Each fragment was added to 5 ml of Aquasol-2 and counted with a liquid scintillation counter to determine ^3H radioactivity.
The inhibitory activity of each test sample was calculated as follows: Rate of enzyme reaction (R,%)=D/(T+D)×100 Inhibitory activity (%)=(1−Rsample/Rcontrol)×100 where D and T are the ^3H radioactivity recovered. The results are reported in Table 1, and reflected in FIG. 2.

5α-reductase = assay: In vivo 5α-reductase inhibitor biological assay; design: species or system male Sprague-Dawley rats; conditions: rats treated subcutaneously from postnatal third day until seven weeks; mean of three separate experiments
[2] = tested on: prostate cancer cell line PC3; assay: Anti-prostate cancer screening, anti-androgenic bioassay (wild type AR transactivation, MMTV-luciferase) in PC-3 cells; type: cell-based, Human; conditions: PC-3 cells transfected with wild type AR, 1 nM DHT, 24 h, mean of three separate experiments
Experimental: (§1) Human prostate cancer cell lines LNCaP and PC-3 were maintained in RPMI 1640 medium and DMEM medium, respectively. Both media were supplemented with penicillin (25 units/mL), streptomycin (25 μg/mL), and 10% fetal calf serum. For the androgen receptor transactivation assay, an androgen-dependent reporter gene transcription test was employed as the primary screening for potential anti-androgen identification. This assay was first performed in LNCaP cells, which express a clinically relevant mutant AR.
Wild type AR transactivation assay was performed in PC-3 host cells, which lack an endogenous, functional AR.
(§2) Cells were plated in 24-well tissue culture dishes for 24 hours (PC-3 cells) or 48 hours (LNCaP cells) prior to transfection. Subsequently, LNCaP cells were transfected with a reporter gene, MMTV-luciferase, which contains MMTV-LTR promoter and androgen receptor binding element, and PRL-SV40, which served as an internal control for transfection efficiency. PC-3 cells were transfected with a wild type AR expression plasmid, pSG5AR, in addition to the aforementioned MMTV-luciferase reporter gene and PRL-SV40 internal control. SuperFect (Qiagen, Chatsworth, Calif.) was employed as the transfection reagent following manufacturer's recommendations.
(§3) At the end of a 5-hour transfection period, the medium was changed to DMEM or RPMI 1640 medium, supplemented with 10% charcoal dextran-stripped (that is, androgen-depleted) serum. After 24 h, the cells were treated with 1 nM of DHT and/or test compounds at the designated concentration for another 24 h. The cells were harvested for luciferase activity assay using the Dual Luciferase Assay System (Promega, Madison, Wis.).
(§4) The derived data were expressed as relative luciferase activity normalized to the internal luciferase control. […] The results are reported in Table 3, and reflected in FIGS. 4 and 5.

[3] = tested on: prostate cancer cell line LNCaP; assay: Anti-prostate cancer screening, anti-androgenic bioassay (AR transactivation, MMTV-luciferase) in LNCaP cells; type: cell-based, Human; conditions: 1 nM DHT, 24 h, mean of three separate experiments
Experimental: as §1, §2, §3
as §4, with “control. Cells cultured in medium containing DHT (androgen), as a positive control, induced a marked reporter gene expression.” for “control.”

| Compound | IC50 [1] [nM] | IC50 ([2]; Homo sapiens) [nM] | melting point [°C] | IC50 ([3]; Homo sapiens) [nM] | IC50 [2] [nM] | IC50 [3] [nM] | ED50 of the 5α-reductase inhibitors activities (5α-reductase) [nM] |
| --- | --- | --- | --- | --- | --- | --- | --- |
| CC(C)C1=CC2=CC[C@@H]3[C@](C)(CCC[C@@]3(C)C(=O)O)[C@H]2CC1 [Abietic acid] | 56000 ± 22000 |  |  |  |  |  | 8800 ± 87 |
| CC(C)(C#N)c1cc(Cn2cncn2)cc(C(C)(C)C#N)c1 [Anastrozole, anastrozole, reference compound] | 11230 ± 23 |  |  |  |  |  | 1090 ± 3.4 |
| CC(C)C1=CC2=CCC3C4(C)CC(CC3(C)C2CC1)OC4=O (centres unmarked) [Compound 2, Abieta-7, 13-dien-18-oic acid (18→2) lactone] | 0.34 ± 0.06 | 45.7 ± 1.09 | 227 to 229 | 4.22 ± 0.03 |  |  | 64 ± 0.76 |
| CC(C)C1=CC2=CC3OC(=O)C4(C)CCCC(C)(C2CC1)C34 (centres unmarked) [Compound 3, Abieta-7,13-dien-18-oic acid (18→6) lactone] | 0.91 ± 0.07 | 112 ± 3.7 | 301 to 303 | 9.08 ± 0.08 |  |  | 90 ± 0.88 |
| CC(C)(C)NC(=O)[C@H]1CC[C@H]2[C@@H]3CC[C@H]4NC(=O)C=C[C@]4(C)[C@H]3CC[C@]12C [Finasteride, finasteride, reference compound] | 60 ± 1.2 |  |  | > 100000 |  |  | 170 ± 7.9 |

More lines, main results first:

| IC50 [1] [nM] | IC50 ([2]; Homo sapiens) [nM] | melting point [°C] | IC50 ([3]; Homo sapiens) [nM] | IC50 [2] [nM] | IC50 [3] [nM] | Compound | ED50 of the 5α-reductase inhibitors activities (5α-reductase) [nM] |
| --- | --- | --- | --- | --- | --- | --- | --- |
| 0.22 ± 0.03 | 18.2 ± 11 |  | 3.24 ± 0.04 |  |  | CC(C)C1=CC2=CCC3C(C)(C(=O)Oc4ccccc4)CC(O)CC3(C)C2CC1 (centres unmarked) [Compound 4a, Phenyl-2-hydroxy-abieta-7,13-dien-18-oate] | 44 ± 0.65 |
| 0.29 ± 0.01 |  |  |  | 26.4 ± 1.8 | 3.58 ± 0.02 | CC(C)C1=CC2=CCC3C(C)(C(=O)Sc4ccccc4)CC(O)CC3(C)C2CC1 (centres unmarked) [Compound 4b, Phenyl-2-hydroxy-abieta-7,13-dien-18-thioate] | 45 ± 0.57 |
| 0.19 ± 0.02 | 11.14 ± 0.09 |  | 2.33 ± 0.05 |  |  | CC(C)C1=CC2=CCC3C(C)(C(=O)Nc4ccccc4)CC(O)CC3(C)C2CC1 (centres unmarked) [Compound 4c, Phenyl-2-hydroxy-abieta-7,13-dien-18-carboxamide] | 38 ± 0.45 |
| 0.74 ± 0.06 | 71.2 ± 3.6 |  | 6.21 ± 0.04 |  |  | CC(C)C1=CC2=CC(O)C3C(C)(C(=O)Oc4ccccc4)CCCC3(C)C2CC1 (centres unmarked) [Compound 5a, Phenyl-6-hydroxy-abieta-7,13-dien-18-oate] | 76 ± 0.89 |
| 0.88 ± 0.07 | 83.5 ± 2.3 |  | 7.8 ± 0.09 |  |  | CC(C)C1=CC2=CC(O)C3C(C)(C(=O)Sc4ccccc4)CCCC3(C)C2CC1 (centres unmarked) [Compound 5b, Phenyl-6-hydroxy-abieta-7,13-dien-18-thioate] | 88 ± 0.89 |
| 0.68 ± 0.08 | 66.2 ± 2.3 |  | 5.78 ± 0.03 |  |  | CC(C)C1=CC2=CC(O)C3C(C)(C(=O)Nc4ccccc4)CCCC3(C)C2CC1 (centres unmarked) [Compound 5c, Phenyl-6-hydroxy-abieta-7,13-dien-18-carboxamide] | 71 ± 0.74 |
